In ChEMBL document CHEMBL4800729 (2021):

Key:
[1] = biological target: Muscarinic acetylcholine receptor M5 (Homo sapiens) (UniProt P08912); conditions: Compound concentration 10.0 uM
[2] = biological target: Adenosine receptor A2a (Homo sapiens) (UniProt P29274); conditions: Compound concentration 10.0 uM
[3] = biological target: Eukaryotic elongation factor 2 kinase (Homo sapiens) (UniProt O00418); assay: eEF-2K(h) Millipore kinase panel; conditions: Compound concentration 1.0 uM
[4] = biological target: Serine/threonine-protein kinase 38 (Homo sapiens) (UniProt Q15208); assay: NDR1(h) Millipore kinase panel; conditions: Compound concentration 1.0 uM
[5] = biological target: Histamine H3 receptor (Homo sapiens) (UniProt Q9Y5N1); conditions: Compound concentration 10.0 uM
[6] = biological target: Tyrosine-protein kinase Srms (Homo sapiens) (UniProt Q9H3Y6); assay: SRMS(h) Millipore kinase panel; conditions: Compound concentration 1.0 uM
[7] = biological target: Cyclin-dependent kinase 4/cyclin D (Homo sapiens) (UniProt P11802+P24385+P30281+P30279); assay: CDK4/cyclinD Millipore kinase panel; type: protein-complex assay; conditions: Compound concentration 1.0 uM
[8] = biological target: Serine/threonine-protein kinase 33 (Homo sapiens) (UniProt Q9BYT3); assay: STK33(h) Millipore kinase panel; conditions: Compound concentration 1.0 uM
Serine/threonine-protein kinase 33 (Homo sapiens), sequence (Q9BYT3 whole entry, looked up): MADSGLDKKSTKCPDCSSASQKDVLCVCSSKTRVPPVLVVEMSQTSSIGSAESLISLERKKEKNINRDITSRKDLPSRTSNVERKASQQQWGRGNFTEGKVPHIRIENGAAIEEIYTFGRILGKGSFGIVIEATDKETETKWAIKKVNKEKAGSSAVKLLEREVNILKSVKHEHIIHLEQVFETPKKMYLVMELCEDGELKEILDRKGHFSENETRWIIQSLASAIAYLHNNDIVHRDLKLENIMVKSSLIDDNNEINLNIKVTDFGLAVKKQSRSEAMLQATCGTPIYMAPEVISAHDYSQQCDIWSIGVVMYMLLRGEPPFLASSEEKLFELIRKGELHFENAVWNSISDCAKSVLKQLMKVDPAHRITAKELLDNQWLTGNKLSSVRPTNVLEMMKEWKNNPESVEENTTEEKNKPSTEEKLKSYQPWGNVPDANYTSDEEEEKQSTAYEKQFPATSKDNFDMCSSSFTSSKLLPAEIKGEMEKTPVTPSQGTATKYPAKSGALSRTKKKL

[9] = biological target: Cyclin-dependent kinase 2/cyclin A (Homo sapiens) (UniProt P24941+P20248+P78396); assay: CDK2/cyclinA(h) Millipore kinase panel; type: protein-complex assay; conditions: Compound concentration 1.0 uM
[10] = biological target: Sigma non-opioid intracellular receptor 1 (Homo sapiens) (UniProt Q99720); conditions: Compound concentration 10.0 uM
[11] = biological target: Aurora kinase A (Homo sapiens) (UniProt O14965); assay: Aurora_A(h) Millipore kinase panel; conditions: Compound concentration 1.0 uM
[12] = biological target: Ephrin type-A receptor 5 (Homo sapiens) (UniProt P54756); assay: EphA5(h) Millipore kinase panel; conditions: Compound concentration 1.0 uM
Ephrin type-A receptor 5 (Homo sapiens), sequence (P54756 whole entry): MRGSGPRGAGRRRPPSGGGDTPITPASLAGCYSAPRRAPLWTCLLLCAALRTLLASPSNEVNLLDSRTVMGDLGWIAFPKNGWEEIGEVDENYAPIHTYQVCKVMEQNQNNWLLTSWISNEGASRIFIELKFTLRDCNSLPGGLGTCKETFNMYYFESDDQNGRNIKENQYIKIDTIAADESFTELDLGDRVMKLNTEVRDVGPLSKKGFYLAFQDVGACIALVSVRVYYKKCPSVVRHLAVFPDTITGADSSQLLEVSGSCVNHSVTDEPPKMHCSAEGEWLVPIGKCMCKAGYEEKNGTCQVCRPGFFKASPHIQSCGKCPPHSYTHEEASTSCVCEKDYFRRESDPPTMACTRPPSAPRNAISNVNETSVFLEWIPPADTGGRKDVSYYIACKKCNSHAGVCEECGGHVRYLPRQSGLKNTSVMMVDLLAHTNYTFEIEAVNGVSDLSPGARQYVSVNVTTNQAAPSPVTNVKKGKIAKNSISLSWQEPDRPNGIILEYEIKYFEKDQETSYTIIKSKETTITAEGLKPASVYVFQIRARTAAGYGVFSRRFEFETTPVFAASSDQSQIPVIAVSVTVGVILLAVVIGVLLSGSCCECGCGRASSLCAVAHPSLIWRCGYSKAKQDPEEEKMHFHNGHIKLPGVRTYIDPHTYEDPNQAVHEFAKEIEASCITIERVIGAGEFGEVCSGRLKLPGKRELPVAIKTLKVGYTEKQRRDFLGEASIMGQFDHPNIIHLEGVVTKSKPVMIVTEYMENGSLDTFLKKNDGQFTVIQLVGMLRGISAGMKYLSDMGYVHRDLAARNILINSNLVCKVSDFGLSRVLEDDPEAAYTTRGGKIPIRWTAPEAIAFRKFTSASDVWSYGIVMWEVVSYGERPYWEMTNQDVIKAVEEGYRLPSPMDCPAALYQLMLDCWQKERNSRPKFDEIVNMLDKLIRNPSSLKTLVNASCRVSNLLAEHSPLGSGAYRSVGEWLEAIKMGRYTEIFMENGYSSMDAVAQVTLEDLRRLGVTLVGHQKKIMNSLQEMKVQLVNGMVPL

[13] = biological target: Serine/threonine-protein kinase MARK1 (Homo sapiens) (UniProt Q9P0L2); assay: MARK1(h) Millipore kinase panel; conditions: Compound concentration 1.0 uM
[14] = biological target: Endothelin receptor type B (Homo sapiens) (UniProt P24530); conditions: Compound concentration 10.0 uM
[15] = biological target: Testis-specific serine/threonine-protein kinase 2 (Homo sapiens) (UniProt Q96PF2); assay: TSSK2(h) Millipore kinase panel; conditions: Compound concentration 1.0 uM
Testis-specific serine/threonine-protein kinase 2 (Homo sapiens), sequence (Q96PF2 whole entry): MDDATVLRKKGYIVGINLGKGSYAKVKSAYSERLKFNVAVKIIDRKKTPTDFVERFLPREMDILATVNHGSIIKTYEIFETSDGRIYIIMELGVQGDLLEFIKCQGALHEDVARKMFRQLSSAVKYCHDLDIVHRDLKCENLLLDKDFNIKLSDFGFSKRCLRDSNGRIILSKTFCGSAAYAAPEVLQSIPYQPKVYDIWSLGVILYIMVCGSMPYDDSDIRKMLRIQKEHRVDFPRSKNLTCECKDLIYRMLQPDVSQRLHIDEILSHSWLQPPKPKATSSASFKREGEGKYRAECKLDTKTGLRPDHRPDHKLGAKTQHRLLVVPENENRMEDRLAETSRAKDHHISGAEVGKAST

[16] = biological target: Glucocorticoid receptor (Homo sapiens) (UniProt P04150); conditions: Compound concentration 10.0 uM
[17] = biological target: D(1B) dopamine receptor (Homo sapiens) (UniProt P21918); conditions: Compound concentration 10.0 uM
[18] = biological target: Homeodomain-interacting protein kinase 2 (Homo sapiens) (UniProt Q9H2X6); assay: HIPK2(h) Millipore kinase panel; conditions: Compound concentration 1.0 uM
Homeodomain-interacting protein kinase 2 (Homo sapiens), sequence (Q9H2X6 whole entry, looked up): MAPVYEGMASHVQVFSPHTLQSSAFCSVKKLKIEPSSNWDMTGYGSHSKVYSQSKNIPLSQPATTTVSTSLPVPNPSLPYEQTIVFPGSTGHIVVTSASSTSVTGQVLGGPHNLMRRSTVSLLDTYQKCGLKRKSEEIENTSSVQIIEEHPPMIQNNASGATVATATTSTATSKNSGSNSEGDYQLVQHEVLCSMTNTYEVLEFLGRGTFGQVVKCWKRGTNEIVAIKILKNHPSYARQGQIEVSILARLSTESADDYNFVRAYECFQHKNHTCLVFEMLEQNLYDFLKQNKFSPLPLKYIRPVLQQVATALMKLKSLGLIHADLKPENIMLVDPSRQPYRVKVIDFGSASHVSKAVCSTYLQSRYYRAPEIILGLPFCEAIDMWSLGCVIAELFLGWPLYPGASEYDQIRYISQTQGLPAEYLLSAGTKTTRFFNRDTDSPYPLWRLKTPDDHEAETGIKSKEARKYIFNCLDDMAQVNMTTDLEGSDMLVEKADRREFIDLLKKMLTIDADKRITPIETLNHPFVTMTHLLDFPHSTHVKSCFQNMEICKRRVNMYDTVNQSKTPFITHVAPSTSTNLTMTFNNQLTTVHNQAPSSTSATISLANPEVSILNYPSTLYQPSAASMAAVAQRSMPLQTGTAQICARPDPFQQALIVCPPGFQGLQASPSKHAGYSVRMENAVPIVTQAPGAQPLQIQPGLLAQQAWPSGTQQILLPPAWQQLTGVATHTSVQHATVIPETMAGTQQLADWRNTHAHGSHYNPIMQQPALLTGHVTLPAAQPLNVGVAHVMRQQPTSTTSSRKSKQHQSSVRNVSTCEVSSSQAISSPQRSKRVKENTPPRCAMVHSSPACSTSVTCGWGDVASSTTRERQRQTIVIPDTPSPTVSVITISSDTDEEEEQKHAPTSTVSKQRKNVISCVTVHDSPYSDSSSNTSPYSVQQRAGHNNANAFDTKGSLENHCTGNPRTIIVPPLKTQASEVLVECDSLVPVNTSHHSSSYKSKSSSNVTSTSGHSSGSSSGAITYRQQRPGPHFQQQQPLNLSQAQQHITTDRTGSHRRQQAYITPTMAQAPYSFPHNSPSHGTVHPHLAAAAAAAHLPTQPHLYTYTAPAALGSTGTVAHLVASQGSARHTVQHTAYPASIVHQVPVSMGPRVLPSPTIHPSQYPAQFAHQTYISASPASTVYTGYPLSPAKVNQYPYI

[19] = biological target: Glycogen synthase kinase-3 alpha (Homo sapiens) (UniProt P49840); assay: GSK3alpha(h Millipore kinase panel; conditions: Compound concentration 1.0 uM
[20] = biological target: Serine/threonine-protein kinase TAO1 (Homo sapiens) (UniProt Q7L7X3); assay: TAO1(h) Millipore kinase panel; conditions: Compound concentration 1.0 uM
[21] = biological target: Serine/threonine-protein kinase PLK3 (Homo sapiens) (UniProt Q9H4B4); assay: Plk3(h) Millipore kinase panel; conditions: Compound concentration 1.0 uM
[22] = biological target: Mast/stem cell growth factor receptor Kit (Homo sapiens) (UniProt P10721); assay: cKit(h) Millipore kinase panel; conditions: Compound concentration 1.0 uM
[23] = biological target: Tyrosine-protein kinase ABL1 (Homo sapiens) (UniProt P00519); assay: Abl(h) Millipore kinase panel; conditions: Compound concentration 1.0 uM
[24] = biological target: Receptor tyrosine-protein kinase erbB-4 (Homo sapiens) (UniProt Q15303); assay: ErbB4(h) Millipore kinase panel; conditions: Compound concentration 1.0 uM
[25] = biological target: Polyunsaturated fatty acid lipoxygenase ALOX15 (Homo sapiens) (UniProt P16050); assay: Inhibition of Lipoxygenase 15-LO at compound concentration of 10.0 uM in the Eurofins-Panlabs enzyme assay (Eurofins_assay_199017); conditions: Compound concentration 10.0 uM
ATR/ATRIP (Homo sapiens) = ATR/ATRIP (Homo sapiens) (UniProt Q13535+Q8WXE1); assay: ATR/ATRIP(h) Millipore kinase panel; type: protein-complex assay; conditions: Compound concentration 1.0 uM
[26] = biological target: Protein-tyrosine kinase 2-beta (Homo sapiens) (UniProt Q14289); assay: Pyk2(h) Millipore kinase panel; conditions: Compound concentration 1.0 uM
[27] = biological target: Phosphatidylinositol 5-phosphate 4-kinase type-2 alpha (Homo sapiens) (UniProt P48426); conditions: Compound concentration 1.0 uM
[28] = biological target: Serine/threonine-protein kinase NLK (Homo sapiens) (UniProt Q9UBE8); assay: NLK(h) Millipore kinase panel; conditions: Compound concentration 1.0 uM
[29] = biological target: Phosphodiesterase 3 (Homo sapiens) (UniProt Q14432+Q13370); assay: Inhibition of Phosphodiesterase PDE3 at compound concentration of 10.0 uM in the Eurofins-Panlabs enzyme assay (Eurofins_assay_152000); type: protein assay; set-up: substrate with concentration 1.01 uM [3H] cAMP + cAMP, incubation time 20 min, incubation temperature 25 C; conditions: Compound concentration 10.0 uM
[30] = biological target: Protein kinase C beta type (Homo sapiens) (UniProt P05771); assay: PKCbetaII(h) Millipore kinase panel; conditions: Compound concentration 1.0 uM
Protein kinase C beta type (Homo sapiens), sequence (P05771 2-671 limits assumed): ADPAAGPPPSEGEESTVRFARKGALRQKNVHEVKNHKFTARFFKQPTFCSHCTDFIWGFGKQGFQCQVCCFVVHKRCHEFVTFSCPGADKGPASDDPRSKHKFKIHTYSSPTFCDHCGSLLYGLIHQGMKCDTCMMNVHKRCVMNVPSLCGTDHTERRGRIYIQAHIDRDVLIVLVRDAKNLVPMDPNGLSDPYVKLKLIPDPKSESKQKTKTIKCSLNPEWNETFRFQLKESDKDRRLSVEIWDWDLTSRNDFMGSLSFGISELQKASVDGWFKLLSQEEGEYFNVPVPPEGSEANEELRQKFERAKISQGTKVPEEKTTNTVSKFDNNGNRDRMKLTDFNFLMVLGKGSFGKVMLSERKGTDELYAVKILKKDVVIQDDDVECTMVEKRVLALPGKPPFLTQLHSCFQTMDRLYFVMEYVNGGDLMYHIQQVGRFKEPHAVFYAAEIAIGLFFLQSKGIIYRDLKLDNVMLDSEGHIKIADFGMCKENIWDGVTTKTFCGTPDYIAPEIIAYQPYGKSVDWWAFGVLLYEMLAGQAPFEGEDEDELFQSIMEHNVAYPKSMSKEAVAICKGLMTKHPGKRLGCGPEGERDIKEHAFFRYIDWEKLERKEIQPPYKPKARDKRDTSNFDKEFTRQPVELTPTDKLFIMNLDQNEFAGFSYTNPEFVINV

[31] = biological target: Beta-3 adrenergic receptor (Homo sapiens) (UniProt P13945); conditions: Compound concentration 10.0 uM
[32] = biological target: Serine/threonine-protein kinase haspin (Homo sapiens) (UniProt Q8TF76); assay: Haspin(h) Millipore kinase panel; conditions: Compound concentration 1.0 uM
[33] = biological target: Dual specificity mitogen-activated protein kinase kinase 2 (Homo sapiens) (UniProt P36507); assay: MEK2(h) Millipore kinase panel; conditions: Compound concentration 1.0 uM
[34] = biological target: Casein kinase II subunit alpha (Homo sapiens) (UniProt P68400); assay: CK2alpha1(h) Millipore kinase panel; conditions: Compound concentration 1.0 uM
[35] = biological target: Serine/threonine-protein kinase/endoribonuclease IRE1 (Homo sapiens) (UniProt O75460); assay: IRE1(h) Millipore kinase panel; conditions: Compound concentration 1.0 uM
Serine/threonine-protein kinase/endoribonuclease IRE1 (Homo sapiens), sequence (O75460 19-977 limits assumed): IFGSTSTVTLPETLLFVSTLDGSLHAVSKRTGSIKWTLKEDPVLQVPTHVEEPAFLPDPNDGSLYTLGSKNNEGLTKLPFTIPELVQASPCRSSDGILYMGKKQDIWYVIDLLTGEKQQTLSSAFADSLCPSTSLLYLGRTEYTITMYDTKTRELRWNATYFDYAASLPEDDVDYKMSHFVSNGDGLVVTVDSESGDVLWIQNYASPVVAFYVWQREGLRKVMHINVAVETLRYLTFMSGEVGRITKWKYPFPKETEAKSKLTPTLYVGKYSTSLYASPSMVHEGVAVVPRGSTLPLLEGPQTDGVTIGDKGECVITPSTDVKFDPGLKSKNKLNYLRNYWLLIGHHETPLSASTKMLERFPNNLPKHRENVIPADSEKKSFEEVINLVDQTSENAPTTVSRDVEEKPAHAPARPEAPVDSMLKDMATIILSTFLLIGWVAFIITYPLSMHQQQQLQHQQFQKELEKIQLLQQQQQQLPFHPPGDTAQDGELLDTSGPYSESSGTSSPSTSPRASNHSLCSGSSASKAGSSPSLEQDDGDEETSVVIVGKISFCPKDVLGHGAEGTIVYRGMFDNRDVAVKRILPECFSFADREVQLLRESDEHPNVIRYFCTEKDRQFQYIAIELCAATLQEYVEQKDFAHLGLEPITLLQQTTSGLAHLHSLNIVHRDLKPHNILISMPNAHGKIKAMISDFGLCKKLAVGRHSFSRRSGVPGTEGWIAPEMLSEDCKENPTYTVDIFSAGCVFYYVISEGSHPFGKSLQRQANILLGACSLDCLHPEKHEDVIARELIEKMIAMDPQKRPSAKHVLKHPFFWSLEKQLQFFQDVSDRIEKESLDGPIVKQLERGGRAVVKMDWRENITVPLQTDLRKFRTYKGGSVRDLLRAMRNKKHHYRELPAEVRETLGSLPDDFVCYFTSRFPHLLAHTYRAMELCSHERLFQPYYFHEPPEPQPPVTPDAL

[36] = biological target: CDK17/Cyclin-Y (Homo sapiens) (UniProt Q00537+Q8ND76); assay: CDK17/cyclinY(h) Millipore kinase panel; type: protein-complex assay; conditions: Compound concentration 1.0 uM
[37] = biological target: Serine/threonine-protein kinase WNK1 (Homo sapiens) (UniProt Q9H4A3); assay: WNK1(h) Millipore kinase panel; conditions: Compound concentration 1.0 uM
[38] = biological target: Mitogen-activated protein kinase 8 (Homo sapiens) (UniProt P45983); assay: JNK1alpha1(h) Millipore kinase panel; conditions: Compound concentration 1.0 uM
[39] = biological target: Dual specificity mitogen-activated protein kinase kinase 3 (Homo sapiens) (UniProt P46734); assay: MKK3(h) Millipore kinase panel; conditions: Compound concentration 1.0 uM
[40] = biological target: cGMP-specific 3',5'-cyclic phosphodiesterase (Homo sapiens) (UniProt O76074); conditions: Compound concentration 10.0 uM
[41] = biological target: cAMP-dependent protein kinase catalytic subunit PRKX (Homo sapiens) (UniProt P51817); assay: PrKX(h) Millipore kinase panel; conditions: Compound concentration 1.0 uM
[42] = biological target: Dual specificity protein kinase TTK (Homo sapiens) (UniProt P33981); assay: TTK(h) Millipore kinase panel; conditions: Compound concentration 1.0 uM
[43] = biological target: High affinity nerve growth factor receptor (Homo sapiens) (UniProt P04629); assay: TrkA(h) Millipore kinase panel; conditions: Compound concentration 1.0 uM
[44] = biological target: Tyrosine-protein kinase Fgr (Homo sapiens) (UniProt P09769); assay: Fgr(h) Millipore kinase panel; conditions: Compound concentration 1.0 uM
[45] = biological target: Serine/threonine-protein kinase Nek7 (Homo sapiens) (UniProt Q8TDX7); assay: NEK7(h) Millipore kinase panel; conditions: Compound concentration 1.0 uM
Serine/threonine-protein kinase Nek7 (Homo sapiens), sequence (Q8TDX7 whole entry, looked up): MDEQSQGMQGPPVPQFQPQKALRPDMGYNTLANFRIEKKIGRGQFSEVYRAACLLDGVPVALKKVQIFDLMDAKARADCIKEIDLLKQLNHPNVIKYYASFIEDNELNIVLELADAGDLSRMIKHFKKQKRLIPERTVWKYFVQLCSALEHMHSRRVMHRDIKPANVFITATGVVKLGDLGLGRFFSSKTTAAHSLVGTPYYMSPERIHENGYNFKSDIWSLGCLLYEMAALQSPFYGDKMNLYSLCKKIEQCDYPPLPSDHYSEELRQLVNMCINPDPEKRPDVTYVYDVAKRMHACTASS

[46] = biological target: Progesterone receptor (Homo sapiens) (UniProt P06401); conditions: Compound concentration 10.0 uM
[47] = biological target: Inhibitor of nuclear factor kappa-B kinase subunit alpha (Homo sapiens) (UniProt O15111); assay: IKKalpha(h) Millipore kinase panel; conditions: Compound concentration 1.0 uM

Work on `CC[C@@H](Nc1c(C#N)c(-c2ccc(-c3cccc(C)c3F)cc2)nc2cnccc12)C(=O)O` [BAY-091] yielded an inhibition [1] of -4.26%, an inhibition [2] of 7% and an inhibition [3] of 5.5%. It also gave an inhibition [4] of -6%, an inhibition [5] of 3% and an inhibition [6] of 26.3%. For the same molecule, the inhibition [7] was 11.3%, the inhibition [8] was 2.82% and the inhibition [9] was -1.5%. For the same molecule, the inhibition [10] was 35.8%, the inhibition [11] was 13.8% and the inhibition [12] was 15.8%. The inhibition [13] was 2.52%, the inhibition [14] was 1% and the inhibition [15] was -1.97%. The inhibition [16] was 32%, the inhibition [17] was 15.8% and the inhibition [18] was 0.19%. The inhibition [19] was 5.47%, the inhibition [20] was 1.92% and the inhibition [21] was -7.76%. It also gave an inhibition [22] of 22.3%, an inhibition [23] of 12.1% and an inhibition [24] of 3.85%. The inhibition [25] was 20%, the inhibition (ATR/ATRIP (Homo sapiens)) was 16.2% and the inhibition [26] was 10.7%. The inhibition [27] was 142%, the inhibition [28] was 8.59% and the inhibition [29] was 74%. For the same molecule, the inhibition [30] was -1.59%, the inhibition [31] was -2.13% and the inhibition [32] was 14.2%. For the same molecule, the inhibition [33] was -9.56%, the inhibition [34] was 3.34% and the inhibition [35] was 2.72%. For the same molecule, the inhibition [36] was 0.09%, the inhibition [37] was 14.7% and the inhibition [38] was 4.24%. The inhibition [39] was 12.8%, the inhibition [40] was 62% and the inhibition [41] was 2.66%. It also gave an inhibition [42] of -9.1%, an inhibition [43] of 5.32% and an inhibition [44] of 5.05%. It also gave an inhibition [45] of 5.49%, an inhibition [46] of 29% and an inhibition [47] of 3.94%.
